Type in all cases: cell-based
In one assay the test system is BT474 (breast cancer). As to the kind of experiment: In vitro cell assay, MTS cell viability 96 hours after treatment. Conditions: Homo sapiens, BT-474, BT474 cells; geometric mean; cytotoxic peptides; read-out: BT474 GMEAN IC50. In a few lines: (§1)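 Cells are exposed to 3-fold dilution series (10 points, duplicate wells) of ADC or free compound lacking antibody. After 96 hours, an MTS assay quantifies viability relative to untreated cells.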

For assay [1], the system named is MDA-MB-361-DYT2 (breast cancer). The assay is described as above. Conditions: read-out: MDA-MB-361-DYT2 GMEAN IC50, MDA-MB-361-DYT2 cells; geometric mean; cytotoxic peptides. The essentials:
as §1

The test system of a further assay is N87 (gastric cancer). The description is as above. As to conditions: read-out: N87 GMEAN IC50, N87 cells; geometric mean; cytotoxic peptides. The essentials: as §1
In assay [2] the test system is MDA-MB-468 (breast cancer). As to the kind of experiment: In vitro cytotoxicity assay with anti-Notch ADCs (MTS). As to conditions: average of 2-4 repeats where ± S.E.M. is given. The procedure: (§2) The effects of anti-Notch ADCs were assessed on 1) cell lines endogenously expressing Notch protein: HCC2429 (lung cancer), OVCAR3 (ovarian cancer) and MDA-MB-468 (breast cancer), 2) cell lines engineered to over-express Notch protein: MDA-MB-468/hNotch and U2OS/hNotch, and 3) a negative control cell line (SW900) using an MTS cellular viability indicator (Promega, Madison, Wis.). These cell lines were cultured with increasing concentrations of anti-Notch ADCs comprising humanized anti-Notch antibodies, hu28 and hu75, and rat-human chimeric anti-Notch antibodies, ch28 and ch75, conjugated to various linker-payload combinations of the present invention. As a specificity control for the anti-Notch-ADCs, non-targeted control-ADCs (huNeg8.8-ADCs or ch2H6-ADCs) were also tested on the same cell lines. After four days, viability of each culture was assessed. IC50 values were calculated by logistic non-linear regression and presented as ng Ab/mL. The drug antibody ratio (DAR) is also provided.

For a further assay, the system named is HCC2429 (lung cancer). Described as above. Conditions: average of 2-4 repeats where ± S.E.M. is given. The protocol: as §2
Another assay concerns OVCAR3 (ovarian cancer). Described as above. As to conditions: average of 2-4 repeats where ± S.E.M. is given. The protocol: as §2
In the next assay the test system is U2OS/hNotch. The description is as above. Conditions: average of 2-4 repeats where ± S.E.M. is given. The protocol: as §2

Numbering of substitutions follows the chain as printed. Starred links: 1 amine or outer side, 2 acyl side, 3 side chain; linkers in the order of their positions; H or OH if unused. Non-standard residues stand in square brackets, D forms with d. Residues, ends and D or L forms follow the SMILES beside them. Dolaproine = CO[C@@H]([C@@H]1CCCN1)[C@@H](C)C(=O)O; Dil = CC[C@H](C)[C@H](NC)[C@@H](CC(=O)O)OC; X7 = C[C@@]1(C(=O)[*:2])CCCCN1[*:1]; αMeV = CC(C)[C@](C)(N)C(=O)O; αMeP = C[C@@]1(C(=O)O)CCCN1; NMeAib = CNC(C)(C)C(=O)O

`CC[C@H](C)[C@@H]([C@@H](CC(=O)N1CCC[C@H]1[C@H](OC)[C@@H](C)C(=O)N[C@@H](Cc1ccccc1)C(=O)O)OC)N(C)C(=O)[C@@H](NC(=O)[C@]1(C)CCCN1)C(C)C` [#118, 2-methyl-L-prolyl-N-[(3R,4S,5S)-1-{(2S)-2-[(1R,2R)-3-{[(1S)-1-carboxy-2-phenylethyl]amino}-1-methoxy-2-methyl-3-oxopropyl]pyrrolidin-1-yl}-3-methoxy-5-methyl-1-oxoheptan-4-yl]-N-methyl-L-valinamide] (H-[αMeP]V[Dil][Dolaproine]F-OH): the IC50 (in the assay on BT474 (breast cancer); in assay [1]; with N87 (gastric cancer)) was ≥ 100 nM each time.
`CC[C@H](C)[C@@H]([C@@H](CC(=O)N1CCC[C@H]1[C@H](OC)[C@@H](C)C(=O)N[C@@H](Cc1ccccc1)C(=O)OC)OC)N(C)C(=O)[C@@H](NC(=O)C(C)(C)NC)C(C)C` [#226] (H-[NMeAib]V[Dil][Dolaproine]F-OMe): the IC50 in the assay on BT474 (breast cancer) amounted to 0.118 nM; in assay [1] it was 0.106 nM; in the assay with N87 (gastric cancer), 0.478 nM.
For `CC[C@H](C)[C@@H]([C@@H](CC(=O)N1CCC[C@H]1[C@H](OC)[C@@H](C)C(=O)N[C@H](CN)Cc1ccccc1)OC)N(C)C(=O)[C@@H](NC(=O)[C@]1(C)CCCN1C)C(C)C` [#246] the same measures were 3.16 nM, 5.43 nM and 10.8 nM.
Take `CC[C@H](C)[C@@H]([C@@H](CC(=O)N1CCC[C@H]1[C@H](OC)[C@@H](C)C(=O)N[C@@H](Cc1c[nH]cn1)C(=O)OC)OC)N(C)C(=O)[C@@H](NC(=O)C(C)(C)NC)C(C)C` [#242] (H-[NMeAib]V[Dil][Dolaproine]H-OMe): the figures for the IC50 (in the assay on BT474 (breast cancer); in assay [1]; with N87 (gastric cancer)) were 32.3 nM, 34.5 nM and 41.3 nM, respectively.
With `CC[C@H](C)[C@@H]([C@@H](CC(=O)N1CCC[C@H]1[C@H](OC)[C@@H](C)C(=O)N[C@@H](Cc1ccccc1)C(=O)OC)OC)N(C)C(=O)[C@@H](NC(=O)C(C)(C)CNC)C(C)C` [#155, methyl N-{(2R,3R)-3-[(2S)-1-{(3R,4S,5S)-4-[{N-[2,2-dimethyl-3-(methylamino)propanoyl]-L-valyl}(methyl)amino]-3-methoxy-5-methylheptanoyl}pyrrolidin-2-yl]-3-methoxy-2-methylpropanoyl}-L-phenylalaninate], the figures for the IC50 (in the assay with BT474 (breast cancer); in assay [1]; in the assay with N87 (gastric cancer)) were 0.323 nM, 0.318 nM and 0.875 nM, respectively.
In the same order, the values of `CC[C@H](C)[C@@H]([C@@H](CC(=O)N1CCC[C@H]1[C@H](OC)[C@@H](C)C(=O)N[C@@H](Cc1ccccc1)C(=O)O)OC)N(C)C(=O)[C@@H](NC(=O)[C@]1(C)CCCCN1)C(C)C` [#162, N-{(2R,3R)-3-methoxy-3-[(2S)-1-{(3R,4S,5S)-3-methoxy-5-methyl-4-[methyl(N-{[(2S)-2-methylpiperidin-2-yl]carbonyl}-L-valyl)amino]heptanoyl}pyrrolidin-2-yl]-2-methylpropanoyl}-L-phenylalanine] (H-[X7]V[Dil][Dolaproine]F-OH) are 31.4 nM, 27.8 nM and 21.6 nM.
For `CC[C@H](C)[C@@H]([C@@H](CC(=O)N1CCC[C@H]1[C@H](OC)[C@@H](C)C(=O)N[C@@H](Cc1ccccc1)C(=O)OC)OC)N(C)C(=O)[C@@H](NC(=O)[C@@](C)(N)C(C)C)C(C)C` [#147, 3-methyl-L-isovalyl-N-{(1S,2R)-4-{(2S)-2-[(1R,2R)-3-{[(1S)-1-benzyl-2-methoxy-2-oxoethyl]amino}-1-methoxy-2-methyl-3-oxopropyl]pyrrolidin-1-yl}-2-methoxy-1-[(1S)-1-methylpropyl]-4-oxobutyl}-N-methyl-L-valinamide] (H-[αMeV]V[Dil][Dolaproine]F-OMe) the same measures were 0.456 nM, 0.421 nM and 0.144 nM.

B1: ch75-MalPeg6C2-8261 (conjugate)
VH: QVKLLQSGAALVKPGASVKMSCKASGYAFTDYWVTWVKQSHGKSLEWIGEISPNSGGTNFNEKFKGKATLTVDKSTSTAYMELSRLTSEDSAIYYCTRGEIRYNWFAYWGQGTLVTVSS
VL: DIQMTQSPSSLSASVGDRVTITCKASQNVGNNIAWYQQKPGKAPKLLIYYASNRYTGVPSRFSGSGYGTDFTLTISSLQPEDFATYYCQRLYNSPFTFGGGTKVEIK
For B1, the “IC50 (ng Ab/mL) ± S.E.M.” value in assay [2] was determined as 4255 ± 2375 ng Ab/mL.

B2: ch75-me0131 (conjugate)
VH: B1 VH
VL: B1 VL
As for B2, the “IC50 (ng Ab/mL) ± S.E.M.” value in assay [2] amounted to 259 ng Ab/mL.

B3: ch75-mc3377 (conjugate)
VH: B1 VH
VL: B1 VL
Take B3: in assay [2], the “IC50 (ng Ab/mL) ± S.E.M.” value is given as 560 ng Ab/mL.

B4: ch75-mc0131 (conjugate)
VH: B1 VH
VL: B1 VL
On to B4, for which the “IC50 (ng Ab/mL) ± S.E.M.” value in the assay with HCC2429 (lung cancer) is given as 671 ± 406.5 ng Ab/mL; in assay [2] it was 8202 ± 2773.0 ng Ab/mL; in the assay with OVCAR3 (ovarian cancer), 289 ng Ab/mL; with U2OS/hNotch, 19 ng Ab/mL.

B5: ch28-mc0131 (conjugate)
VH: EVQLVESGGGLVQPGRSLTLSCVASGFTFRDYGMTWIRQAPGKGLTWVAYISSGSNYIYYAEAVKGRFTISRDNAKNTLYLQMTSLRSEDTALYFCTRRGPFVLDAWGQGASVTVSS
VL: DIQMTQSPSFLSASVGDRVTINCKASQSINRYLHWFQQKLGEAPKLLIYNANGLQTGIPSRFSGSGSGTDFTLTISSLQSEDVATYFCLQHNTWPDTFGAGTKLELK
For B5, the “IC50 (ng Ab/mL) ± S.E.M.” value in the assay on HCC2429 (lung cancer) is recorded as 251 ± 77.5 ng Ab/mL; in assay [2] it was 35 ± 18.5 ng Ab/mL; in the assay with OVCAR3 (ovarian cancer), 6 ± 1.0 ng Ab/mL; with U2OS/hNotch, 3 ± 0.5 ng Ab/mL.

B6: ch28-mc8261 (conjugate)
VH: B5 VH
VL: B5 VL
As to B6, in assay [2], the “IC50 (ng Ab/mL) ± S.E.M.” value came to 12147 ± 4806.4 ng Ab/mL.

B7: ch28-mc3377 (conjugate)
VH: B5 VH
VL: B5 VL
Regarding B7, the “IC50 (ng Ab/mL) ± S.E.M.” value is 27 ± 11.3 ng Ab/mL in assay [2], 14 ± 5.5 ng Ab/mL with OVCAR3 (ovarian cancer) and 3 ± 0.5 ng Ab/mL in the assay with U2OS/hNotch.

B8: ch28-MalPeg6C2-8261 (conjugate)
VH: B5 VH
VL: B5 VL
For B8, in assay [2], the “IC50 (ng Ab/mL) ± S.E.M.” value was 83 ± 35.5 ng Ab/mL.

B9: ch28-MalPeg6C2-0131 (conjugate)
VH: B5 VH
VL: B5 VL
Turning to B9, the entries for the “IC50 (ng Ab/mL) ± S.E.M.” value (in assay [2]; in the assay on OVCAR3 (ovarian cancer); with U2OS/hNotch) were 10 ± 1.0 ng Ab/mL, 10 ± 2.0 ng Ab/mL and 3 ± 0.85 ng Ab/mL, respectively.

As usually defined, the IC50 is the concentration at which inhibition is half-maximal.
